In the supplement of paper PMC10307832:

Assays:
Test in all cases: relative viability (nuclei count vs DMSO), 5 days (fraction); higher = more cells survive
SW 1573 = tested on: SW 1573
Summary of the method: (§1)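 Five library-drug doses in √10 steps were combined with a fixed anchor-drug dose, or a single drug was given alone, by pin tool to lung cancer cell lines in 1536-well plates the day after seeding. Nuclei were stained and counted after 5 days. Relative viability is the nuclei count in treated wells over that in vehicle wells, taken as the median of duplicate plates.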

RERF-LC-KJ = tested on: RERF-LC-KJ
Summary of the method: as §1

NCI-H2347 = tested on: NCI-H2347
Summary of the method: as §1

EMC-BAC-2 = tested on: EMC-BAC-2
Summary of the method: as §1

NCI-H838 = tested on: NCI-H838
Summary of the method: as §1

NCI-H596 = tested on: NCI-H596
Summary of the method: as §1

HCC-366 = tested on: HCC-366
Summary of the method: as §1

NCI-H3122 = tested on: NCI-H3122
Summary of the method: as §1

NCI-H2228 = tested on: NCI-H2228
Summary of the method: as §1

PC-14 = tested on: PC-14
Summary of the method: as §1

NCI-H2405 = tested on: NCI-H2405
Summary of the method: as §1

HCC-78 = tested on: HCC-78
Summary of the method: as §1

CAL-12T = tested on: CAL-12T
Summary of the method: as §1

NCI-H2009 = tested on: NCI-H2009
Summary of the method: as §1

NCI-H1993 = tested on: NCI-H1993
Summary of the method: as §1

LC-2-ad = tested on: LC-2-ad
Summary of the method: as §1

ChaGo-K-1 = tested on: ChaGo-K-1
Summary of the method: as §1

NCI-H2085 = tested on: NCI-H2085
Summary of the method: as §1

HOP-62 = tested on: HOP-62
Summary of the method: as §1

NCI-H1355 = tested on: NCI-H1355
Summary of the method: as §1

NCI-H1734 = tested on: NCI-H1734
Summary of the method: as §1

Cc1cnc(-c2cnc(NCCNc3ccc(C#N)cn3)nc2-c2ccc(Cl)cc2Cl)[nH]1 + CC(C)C[C@H](NC(=O)[C@H](Cc1ccccc1)NC(=O)c1cnccn1)B(O)O [Bortezomib] (partner 0.002 µM) showed a relative viability (SW 1573; first compound 0.08 µM) of 1.09, a relative viability (SW 1573; first compound 0.253 µM) of 0.899 and a relative viability (SW 1573; first compound 0.8 µM) of 1.13. The relative viability (SW 1573; first compound 2.53 µM) was 0.925, the relative viability (RERF-LC-KJ; first compound 0.08 µM) was 1.27 and the relative viability (RERF-LC-KJ; first compound 0.253 µM) was 1. It also gave a relative viability (RERF-LC-KJ; first compound 0.8 µM) of 0.804, a relative viability (RERF-LC-KJ; first compound 2.53 µM) of 0.931 and a relative viability (NCI-H2347; first compound 0.08 µM) of 0.812. For the same molecule, the relative viability (NCI-H2347; first compound 0.253 µM) was 0.914, the relative viability (NCI-H2347; first compound 0.8 µM) was 1.16 and the relative viability (NCI-H2347; first compound 2.53 µM) was 1.13. For the same molecule, the relative viability (EMC-BAC-2; first compound 0.08 µM) was 1.17, the relative viability (EMC-BAC-2; first compound 0.253 µM) was 1.07 and the relative viability (EMC-BAC-2; first compound 0.8 µM) was 1.01. It also gave a relative viability (EMC-BAC-2; first compound 2.53 µM) of 1.07, a relative viability (NCI-H838; first compound 0.08 µM) of 0.853 and a relative viability (NCI-H838; first compound 0.253 µM) of 0.757. It also gave a relative viability (NCI-H838; first compound 0.8 µM) of 0.889, a relative viability (NCI-H838; first compound 2.53 µM) of 0.99 and a relative viability (NCI-H596; first compound 0.08 µM) of 1.19. For the same molecule, the relative viability (NCI-H596; first compound 0.253 µM) was 0.802, the relative viability (NCI-H596; first compound 0.8 µM) was 1.09 and the relative viability (NCI-H596; first compound 2.53 µM) was 1.12. For the same molecule, the relative viability (HCC-366; first compound 0.08 µM) was 1.09, the relative viability (HCC-366; first compound 0.253 µM) was 0.989 and the relative viability (HCC-366; first compound 0.8 µM) was 0.967. It also gave a relative viability (HCC-366; first compound 2.53 µM) of 1.01, a relative viability (NCI-H3122; first compound 0.08 µM) of 1.03 and a relative viability (NCI-H3122; first compound 0.253 µM) of 0.925. The relative viability (NCI-H3122; first compound 0.8 µM) was 0.997, the relative viability (NCI-H3122; first compound 2.53 µM) was 0.972 and the relative viability (NCI-H2228; first compound 0.08 µM) was 1.04. It also gave a relative viability (NCI-H2228; first compound 0.253 µM) of 0.879, a relative viability (NCI-H2228; first compound 0.8 µM) of 0.986 and a relative viability (NCI-H2228; first compound 2.53 µM) of 0.912. The relative viability (PC-14; first compound 0.08 µM) was 0.804, the relative viability (PC-14; first compound 0.253 µM) was 0.84 and the relative viability (PC-14; first compound 0.8 µM) was 0.82. The relative viability (PC-14; first compound 2.53 µM) was 0.814, the relative viability (NCI-H2405; first compound 0.08 µM) was 0.68 and the relative viability (NCI-H2405; first compound 0.253 µM) was 1.02. It also gave a relative viability (NCI-H2405; first compound 0.8 µM) of 0.967, a relative viability (NCI-H2405; first compound 2.53 µM) of 0.98 and a relative viability (HCC-78; first compound 0.08 µM) of 0.645. The relative viability (HCC-78; first compound 0.253 µM) was 0.457, the relative viability (HCC-78; first compound 0.8 µM) was 0.443 and the relative viability (HCC-78; first compound 2.53 µM) was 0.41. For the same molecule, the relative viability (CAL-12T; first compound 0.253 µM) was 0.902, the relative viability (CAL-12T; first compound 2.53 µM) was 0.975 and the relative viability (NCI-H2009; first compound 0.08 µM) was 1.02. It also gave a relative viability (NCI-H2009; first compound 0.253 µM) of 0.682, a relative viability (NCI-H2009; first compound 0.8 µM) of 1.07 and a relative viability (NCI-H2009; first compound 2.53 µM) of 0.891. For the same molecule, the relative viability (NCI-H1993; first compound 0.08 µM) was 1.23, the relative viability (NCI-H1993; first compound 0.253 µM) was 1.07 and the relative viability (NCI-H1993; first compound 0.8 µM) was 1.1. It also gave a relative viability (NCI-H1993; first compound 2.53 µM) of 1.26, a relative viability (LC-2-ad; first compound 0.08 µM) of 1.19 and a relative viability (LC-2-ad; first compound 0.8 µM) of 1.04. It also gave a relative viability (LC-2-ad; first compound 2.53 µM) of 0.855, a relative viability (ChaGo-K-1; first compound 0.08 µM) of 1.07 and a relative viability (ChaGo-K-1; first compound 0.253 µM) of 0.886. The relative viability (ChaGo-K-1; first compound 0.8 µM) was 0.598, the relative viability (ChaGo-K-1; first compound 2.53 µM) was 0.991 and the relative viability (NCI-H2085; first compound 0.08 µM) was 1.12. For the same molecule, the relative viability (NCI-H2085; first compound 0.253 µM) was 1.17, the relative viability (NCI-H2085; first compound 0.8 µM) was 0.957 and the relative viability (NCI-H2085; first compound 2.53 µM) was 1.02. The relative viability (HOP-62; first compound 0.08 µM) was 1.18, the relative viability (HOP-62; first compound 0.253 µM) was 0.772 and the relative viability (HOP-62; first compound 0.8 µM) was 0.875. The relative viability (HOP-62; first compound 2.53 µM) was 0.907, the relative viability (NCI-H1355; first compound 0.08 µM) was 1.29 and the relative viability (NCI-H1355; first compound 0.253 µM) was 0.961. For the same molecule, the relative viability (NCI-H1355; first compound 0.8 µM) was 1.04, the relative viability (NCI-H1355; first compound 2.53 µM) was 1.15 and the relative viability (NCI-H1734; first compound 0.08 µM) was 0.942. For the same molecule, the relative viability (NCI-H1734; first compound 0.253 µM) was 0.897, the relative viability (NCI-H1734; first compound 0.8 µM) was 0.87 and the relative viability (NCI-H1734; first compound 2.53 µM) was 0.734.
